{"source": "paper PMC7180984", "about": "“A Hydrophilic Interaction Liquid Chromatography–Tandem Mass Spectrometry Quantitative Method for Determination of Baricitinib in Plasma, and Its Application in a Pharmacokinetic Study in Rats” (Molecules, 2020)", "key": {"[1]": {"experiment": "Stability of working solutions", "type": "physicochemical", "protocol": "Stability of the analyte was assessed using five measurements of QC samples at low and high concentrations after exposure to different conditions of storage and processing temperature. Baracitinib stability was evaluated after three freeze-thaw cycles, storage at room temperature (23–25 °C) for 6 h (short term stability), and subsequent storage for eight weeks at −80 °C (long term stability). […]"}, "P-glycoprotein (Pgp)": {"tested_on": "P-glycoprotein (Pgp)", "design": "method as in PMID 30907116", "settings": "cited from earlier work"}, "CYP3A4 enzyme": {"tested_on": "CYP3A4 enzyme", "design": "method as in PMID 30907116", "settings": "cited from earlier work"}, "[2]": {"settings": "cited from earlier work"}, "[3]": {"experiment": "Pharmacokinetic study in rats after oral administration of baricitinib suspension", "type": "in vivo, Sprague Dawely rats", "protocol": "Sample analysis was performed on an Acquity TQD UPLC-MS/MS system (Waters Co., Milford, MA, USA). The triple quadrupole mass spectrometer was operated in the MRM mode, and detection was carried out using electrospray ionization (ESI) in the positive ion mode. In addition, the mass spectrometry parameters including parent to daughter ion transition, collision energy, cone voltage, and dwell time were optimized to determine the analyte and IS (Table 5). The collision gas (argon) flow rate was kept at 0.1 mL/min and the desolvation gas (nitrogen) flow rate was optimized to 600 L/h. […] The flow rate was 0.2 mL/min.\nBaricitinib and IS were extracted from rat plasma using liquid–liquid extraction. 20 µL of irbesartan working solution (20 µg/mL) was added to 100 µL plasma samples. After vortex-mixing for 20 s, 1 mL of n-hexane:dichlromethane mixture (1:1) was added. Samples were then mixed for 1 min and centrifuged for 5 min at 5600× g. The supernatant (0.8 mL) was transferred to a 5-mL tube and evaporated to dryness at 40 °C. Residues were reconstituted in 100 µL of the mobile phase and 5 µL was injected into the LC-MS/MS system.\nSprague Dawely rats weighing 200–230 g were obtained from the animal house at the National Organization for Drug Control and Research, Giza, Egypt. Rats were fed standard sufficient food and water and experiments were performed under the Guide for Care and Use of laboratory animals. experimental protocols were approved by the ethics committee of the Faculty of Pharmacy at Al-Azhar University, Cairo, Egypt (no. 206).\nBaricitinib was used to create a suspension using 1% carboxymethyl cellulose. Following overnight fasting, the drug was administered in a dose of 2 mg/10 mL/kg. Blood samples (approximately 0.25 mL) were then collected from the retro-orbital plexus into heparinized tubes at 0.0, 0.25, 0.5, 0.75, 1.0, 1.25, 2.0, 3.0, 5.0, 7.0, 9.0, and 11.0 h post-dosing. Plasma samples were obtained by centrifuging the blood at 4250× g for 5 min and stored frozen at −80 °C until analysis. The pharmacokinetic parameters Cmax, tmax, AUC, t½, and Kel were calculated using WinNonlin software."}, "[4]": {"experiment": "Stability of quality control samples in rat plasma", "type": "in vitro ADME", "settings": "n = 6", "protocol": "[…] Baracitinib stability was evaluated after three freeze-thaw cycles, storage at room temperature (23–25 °C) for 6 h (short term stability), and subsequent storage for eight weeks at −80 °C (long term stability). Moreover, the stability of stock and working solutions of baricitinib and the IS at room temperature for 6 h (23–25 °C) and at refrigerator (2–8 °C) for 12 days was tested."}, "[5]": {"design": "method as in earlier work", "settings": "pre-clinical animal studies, at higher dosages; cited from earlier work"}, "[6]": {"tested_on": "organic anionic transporter (OAT) 3", "design": "method as in PMID 30907116", "settings": "cited from earlier work"}, "[7]": {"settings": "cited from earlier work", "remark": "listed apart in the source"}, "[8]": {"design": "method as in PMID 24965573", "settings": "cited from earlier work"}, "[9]": {"tested_on": "breast cancer resistance protein (BCRP)", "design": "method as in PMID 30907116", "settings": "cited from earlier work"}, "[10]": {"tested_on": "multidrug and toxic extrusion protein (MATE) 2-K", "design": "method as in PMID 30907116", "settings": "cited from earlier work"}, "[11]": {"settings": "refrigerated temperature (2–8 °C) for 10 days"}, "[12]": {"settings": "room temperature (23–25 °C) for 6 h"}, "[13]": {"settings": "co-administration of high-fat meal"}, "[14]": {"settings": "with rifampicin (potent CYP3A inducer)"}, "[15]": {"settings": "Sprague-Dawley, rat, plasma, male rats, oral 2 mg/kg suspension, fasted, mean ± SD"}, "[16]": {"settings": "rats, literature value higher than present work"}, "[17]": {"settings": "Auto-sampler, nominal 40.0 ng/mL"}, "[18]": {"settings": "Auto-sampler, nominal 400.0 ng/mL"}, "[19]": {"settings": "Bench top (6 h), nominal 400.0 ng/mL"}, "[20]": {"settings": "Long term (at −80 °C for 8 weeks), nominal 40.0 ng/mL"}, "[21]": {"settings": "Long term (at −80 °C for 8 weeks), nominal 400.0 ng/mL"}, "[22]": {"settings": "Thaw/freeze (3 cycles), nominal 40.0 ng/mL"}, "[23]": {"settings": "Thaw/freeze (3 cycles), nominal 400.0 ng/mL"}}, "note": "Where two headings read alike, the source gives them in different places.", "data": [{"smiles": "CCCCC1=NC2(CCCC2)C(=O)N1Cc1ccc(-c2ccccc2-c2nnn[nH]2)cc1", "note": "[IS, irbesartan]", "values": [{"measurement": "Stability of working solution", "setting": "[1]; [11]", "result": "stable"}, {"measurement": "Stability of working solution", "setting": "[1]; [12]", "result": "stable"}]}, {"smiles": "CCS(=O)(=O)N1CC(CC#N)(n2cc(-c3ncnc4[nH]ccc34)cn2)C1", "note": "[baricitinib, Baricitinib]", "values": [{"measurement": "Substrate of P-glycoprotein (Pgp)", "setting": "P-glycoprotein (Pgp)", "result": "substrate"}, {"measurement": "Metabolism by CYP3A4", "setting": "CYP3A4 enzyme", "result": "primarily metabolized"}, {"measurement": "Delay in tmax", "setting": "[2]; [13]", "result": 3, "unit": "h"}, {"measurement": "Effect on AUC", "setting": "[2]; [13]", "result": "no effect"}, {"measurement": "Reduction of Cmax", "setting": "[2]; [13]", "result": "about 29%"}, {"measurement": "Change of clearance", "setting": "[2]; with an inhibitor of the transporter OAT3", "result": "reduced"}, {"measurement": "Effect on baricitinib pharmacokinetics", "setting": "[2]; with fluconazole (CYP2C19/CYP2C9/CYP3A inhibitor)", "result": "did not significantly affect"}, {"measurement": "Effect on baricitinib pharmacokinetics", "setting": "[2]; with ketoconazole (CYP3A inhibitor)", "result": "did not significantly affect"}, {"measurement": "Change of Cmax (rate of absorption)", "setting": "[2]; with probenecid", "result": "not significantly increased"}, {"measurement": "Potentiation of AUC0-inf", "setting": "[2]; with probenecid", "result": "twofold"}, {"measurement": "Renal clearance decreased to", "setting": "[2]; with probenecid", "result": 69, "unit": "%"}, {"measurement": "Change of AUC", "setting": "[2]; [14]", "result": "decreased"}, {"measurement": "Change of Cmax", "setting": "[2]; [14]", "result": "without affecting"}, {"measurement": "Stability of working solution", "setting": "[1]; [11]", "result": "stable"}, {"measurement": "Stability of working solution", "setting": "[1]; [12]", "result": "stable"}, {"measurement": "AUC(0-inf)", "setting": "[3]; [15]", "result": "223 ± 107", "unit": "ng·h/mL"}, {"measurement": "Cmax", "setting": "[3]; [15]", "result": "129 ± 91.4", "unit": "ng/mL"}, {"measurement": "MRT", "setting": "[3]; [15]", "result": "3.3 ± 0.78", "unit": "h"}, {"measurement": "half-life", "setting": "[3]; [15]", "result": "2.24 ± 0.43", "unit": "h"}, {"measurement": "AUC(0-t)", "setting": "[3]; Sprague-Dawley, rat, plasma, male rats, oral 2 mg/kg suspension, fasted, mean ± SD, read-out: AUC0-11", "result": "205 ± 101", "unit": "ng·h/mL"}, {"measurement": "Tmax", "setting": "[3]; Sprague-Dawley, rat, plasma, male rats, oral 2 mg/kg suspension, fasted, median", "result": 0.5, "unit": "h"}, {"measurement": "Difference in AUC, value reported by Veeraraghavan et al. versus present work", "setting": "[3]; [16]", "result": 4.3, "unit": "fold"}, {"measurement": "Difference in Cmax, value reported by Veeraraghavan et al. versus present work", "setting": "[3]; [16]", "result": 5, "unit": "fold"}, {"measurement": "Stability, Accuracy (%)", "setting": "[4]; [17]", "result": 89.0, "unit": "%"}, {"measurement": "Stability, measured conc. Mean ± SD", "setting": "[4]; [17]", "result": "35.6 ± 2.69", "unit": "ng/mL"}, {"measurement": "Stability, Accuracy (%)", "setting": "[4]; [18]", "result": 90.1, "unit": "%"}, {"measurement": "Stability, measured conc. Mean ± SD", "setting": "[4]; [18]", "result": "360.36 ± 11.52", "unit": "ng/mL"}, {"measurement": "Stability, measured conc. Mean ± SD", "setting": "[4]; Bench top (6 h), nominal 40.0 ng/mL", "result": "34.61 ± 3.03", "unit": "ng/mL"}, {"measurement": "Stability, Accuracy (%)", "setting": "[4]; [19]", "result": 85.8, "unit": "%"}, {"measurement": "Stability, measured conc. Mean ± SD", "setting": "[4]; [19]", "result": "343.27 ± 44.76", "unit": "ng/mL"}, {"measurement": "Stability, Accuracy (%)", "setting": "[4]; [20]", "result": 86.6, "unit": "%"}, {"measurement": "Stability, measured conc. Mean ± SD", "setting": "[4]; [20]", "result": "34.63 ± 4.63", "unit": "ng/mL"}, {"measurement": "Stability, Accuracy (%)", "setting": "[4]; [21]", "result": 87.64, "unit": "%"}, {"measurement": "Stability, measured conc. Mean ± SD", "setting": "[4]; [21]", "result": "350.56 ± 28.53", "unit": "ng/mL"}, {"measurement": "Stability, Accuracy (%)", "setting": "[4]; [22]", "result": 85.1, "unit": "%"}, {"measurement": "Stability, measured conc. Mean ± SD", "setting": "[4]; [22]", "result": "34.09 ± 3.99", "unit": "ng/mL"}, {"measurement": "Stability, Accuracy (%)", "setting": "[4]; [23]", "result": 86.4, "unit": "%"}, {"measurement": "Stability, measured conc. Mean ± SD", "setting": "[4]; [23]", "result": "345.73 ± 39.84", "unit": "ng/mL"}, {"measurement": "Embryotoxicity and teratogenicity", "setting": "[5]", "result": "embryotoxicity, teratogenicity, and adverse effect on bone development in utero"}, {"measurement": "Substrate of OAT3", "setting": "[6]", "result": "substrate"}, {"measurement": "LDL-C and HDL-C levels", "setting": "[7]", "result": "stable dose-response increase"}, {"measurement": "Infection risk", "setting": "[7]; particularly for herpes zoster", "result": "elevates infection risk"}, {"measurement": "Safety and tolerability", "setting": "[7]; patients with moderate to severe RA treated for 24 weeks", "result": "safe and well tolerated"}, {"measurement": "Time to peak plasma concentrations", "setting": "[8]; after oral administration", "result": "approximately 1 h"}, {"measurement": "Oral bioavailability", "setting": "[8]", "result": 79, "unit": "%"}, {"measurement": "Bound to plasma proteins", "setting": "[8]; mainly albumin", "result": "about 50%"}, {"measurement": "Substrate of BCRP", "setting": "[9]", "result": "substrate"}, {"measurement": "Substrate of MATE2-K", "setting": "[10]", "result": "substrate"}]}]}
